{"source": "paper PMC10035947", "about": "“Development of novel anilinoquinazoline-based carboxylic acids as non-classical carbonic anhydrase IX and XII inhibitors” (Journal of Enzyme Inhibition and Medicinal Chemistry, 2023)", "key": {"UACC-257": {"system": "UACC-257", "assay": "NCI SRB assay", "format": "cell-based, human"}, "NCI/ADR-RES": {"system": "NCI/ADR-RES", "assay": "NCI SRB assay", "format": "cell-based, human"}, "PC-3": {"system": "PC-3", "assay": "NCI SRB assay", "format": "cell-based, human"}, "ACHN": {"system": "ACHN", "assay": "NCI SRB assay", "format": "cell-based, human"}, "OVCAR-3": {"system": "OVCAR-3", "assay": "NCI SRB assay", "format": "cell-based, human"}, "HOP-92": {"system": "HOP-92", "assay": "NCI SRB assay", "format": "cell-based, human"}, "hCA IX": {"molecular_target": "T1, hCA IX (Homo sapiens, UniProt Q16790)", "T1 construct": "made in house", "assay": "stopped flow CO2 hydrase assay", "format": "biochemical", "procedure,_shortened": "(§1)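 Recombinant enzymes assayed by stopped-flow CO2 hydration using 0.2 mM phenol red at 557 nm in 20 mM Hepes pH 7.5 with 20 mM Na2SO4, CO2 1.7–17 mM. Inhibitor and enzyme preincubated 15 min at room temperature.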"}, "hCA XII": {"molecular_target": "T2, hCA XII (Homo sapiens, UniProt O43570)", "T2 construct": "made in house", "T2 sequence (O43570 25-354)": "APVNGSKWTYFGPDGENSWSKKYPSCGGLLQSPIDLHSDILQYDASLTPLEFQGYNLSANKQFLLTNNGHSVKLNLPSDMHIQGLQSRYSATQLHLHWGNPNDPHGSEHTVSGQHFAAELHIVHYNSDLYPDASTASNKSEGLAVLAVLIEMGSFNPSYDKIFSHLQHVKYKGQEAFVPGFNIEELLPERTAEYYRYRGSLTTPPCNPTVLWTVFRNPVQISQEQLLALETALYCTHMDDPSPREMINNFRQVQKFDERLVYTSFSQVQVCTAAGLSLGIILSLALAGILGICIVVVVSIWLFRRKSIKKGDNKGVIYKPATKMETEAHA", "assay": "stopped flow CO2 hydrase assay", "format": "biochemical", "procedure,_shortened": "as §1"}, "T-47D": {"system": "T-47D", "assay": "NCI SRB assay", "format": "cell-based, human"}, "MCF7": {"system": "MCF7", "assay": "NCI SRB assay", "format": "cell-based, human"}, "M14": {"system": "M14", "assay": "NCI SRB assay", "format": "cell-based, human"}, "LOX IMVI": {"system": "LOX IMVI", "assay": "NCI SRB assay", "format": "cell-based, human"}, "CCRF-CEM": {"system": "CCRF-CEM", "assay": "NCI SRB assay", "format": "cell-based, human"}, "BT-549": {"system": "BT-549", "assay": "NCI SRB assay", "format": "cell-based, human"}, "SF-295": {"system": "SF-295", "assay": "NCI SRB assay", "format": "cell-based, human"}, "HCT-116": {"system": "HCT-116", "assay": "NCI SRB assay", "format": "cell-based, human"}, "NCI-H226": {"system": "NCI-H226", "assay": "NCI SRB assay", "format": "cell-based, human"}, "IGROV1": {"system": "IGROV1", "assay": "NCI SRB assay", "format": "cell-based, human"}, "TK-10": {"system": "TK-10", "assay": "NCI SRB assay", "format": "cell-based, human"}, "CAKI-1": {"system": "CAKI-1", "assay": "NCI SRB assay", "format": "cell-based, human"}, "NCI-H460": {"system": "NCI-H460", "assay": "NCI SRB assay", "format": "cell-based, human"}, "SNB-75": {"system": "SNB-75", "assay": "NCI SRB assay", "format": "cell-based, human"}, "NCI-H23": {"system": "NCI-H23", "assay": "NCI SRB assay", "format": "cell-based, human", "conditions": "NCI-H23, 1.00E-5 Molar"}, "MDA-MB-468": {"system": "MDA-MB-468", "assay": "NCI SRB assay", "format": "cell-based, human"}, "[1]": {"system": "59 human cancer cell lines representing nine tumour subpanels", "assay": "NCI SRB assay, panel and subpanel summaries", "conditions": "all cell lines"}, "SW-620": {"system": "SW-620", "assay": "NCI SRB assay", "format": "cell-based, human"}, "NCI-H522": {"system": "NCI-H522", "assay": "NCI SRB assay", "format": "cell-based, human"}}, "data": [{"compound": "Cc1cccc(-c2nc(Nc3ccc(C(=O)O)cc3)c3ccccc3n2)c1", "note": "[8a, 4-((2-(m-Tolyl)quinazolin-4-yl)amino)benzoic acid]", "values": [{"measurement": "GI%", "setting": "UACC-257; UACC-257, 10 μM", "value": "– (Only GI% higher than 20% are shown)"}, {"measurement": "Growth Percent", "setting": "UACC-257; UACC-257, 1.00E-5 Molar", "value": 101.78, "unit": "%"}, {"measurement": "GI%", "setting": "NCI/ADR-RES; 10 μM", "value": "– (Only GI% higher than 20% are shown)"}, {"measurement": "Growth Percent", "setting": "NCI/ADR-RES; 1.00E-5 Molar", "value": 84.58, "unit": "%"}, {"measurement": "GI%", "setting": "PC-3; PC-3, 10 μM", "value": "– (Only GI% higher than 20% are shown)"}, {"measurement": "Growth Percent", "setting": "PC-3; PC-3, 1.00E-5 Molar", "value": 83.31, "unit": "%"}, {"measurement": "GI%", "setting": "ACHN; 10 μM", "value": "– (Only GI% higher than 20% are shown)"}, {"measurement": "Growth Percent", "setting": "ACHN; 1.00E-5 Molar", "value": 85.41, "unit": "%"}, {"measurement": "GI%", "setting": "OVCAR-3; OVCAR-3, 10 μM", "value": "– (Only GI% higher than 20% are shown)"}, {"measurement": "Growth Percent", "setting": "OVCAR-3; OVCAR-3, 1.00E-5 Molar", "value": 82.69, "unit": "%"}, {"measurement": "GI%", "setting": "HOP-92; HOP-92, 10 μM", "value": 29, "unit": "%"}, {"measurement": "Growth Percent", "setting": "HOP-92; HOP-92, 1.00E-5 Molar", "value": 71.13, "unit": "%"}, {"measurement": "Selectivity ratio I/IX", "setting": "hCA IX; KI hCA I / KI hCA IX", "value": 20.4}, {"measurement": "Selectivity ratio II/IX", "setting": "hCA IX; KI hCA II / KI hCA IX", "value": 2.16}, {"measurement": "Ki", "setting": "hCA IX; mean from 3 assays", "value": 4.3, "unit": "µM"}, {"measurement": "Selectivity ratio I/XII", "setting": "hCA XII; KI hCA I / KI hCA XII", "value": 23.1}, {"measurement": "Selectivity ratio II/XII", "setting": "hCA XII; KI hCA II / KI hCA XII", "value": 2.45}, {"measurement": "Ki", "setting": "hCA XII; mean from 3 assays", "value": 3.8, "unit": "µM"}, {"measurement": "GI%", "setting": "T-47D; 10 μM", "value": 22, "unit": "%"}, {"measurement": "Growth Percent", "setting": "T-47D; 1.00E-5 Molar", "value": 77.59, "unit": "%"}, {"measurement": "GI%", "setting": "MCF7; MCF7, 10 μM", "value": "– (Only GI% higher than 20% are shown)"}, {"measurement": "Growth Percent", "setting": "MCF7; MCF7, 1.00E-5 Molar", "value": 88.63, "unit": "%"}, {"measurement": "GI%", "setting": "M14; M14, 10 μM", "value": "– (Only GI% higher than 20% are shown)"}, {"measurement": "Growth Percent", "setting": "M14; M14, 1.00E-5 Molar", "value": 88.98, "unit": "%"}, {"measurement": "GI%", "setting": "LOX IMVI; 10 μM", "value": 29, "unit": "%"}, {"measurement": "Growth Percent", "setting": "LOX IMVI; 1.00E-5 Molar", "value": 71.49, "unit": "%"}, {"measurement": "GI%", "setting": "CCRF-CEM; 10 μM", "value": 25, "unit": "%"}, {"measurement": "Growth Percent", "setting": "CCRF-CEM; 1.00E-5 Molar", "value": 74.58, "unit": "%"}, {"measurement": "GI%", "setting": "BT-549; BT-549, 10 μM", "value": 34, "unit": "%"}, {"measurement": "Growth Percent", "setting": "BT-549; BT-549, 1.00E-5 Molar", "value": 66.04, "unit": "%"}, {"measurement": "GI%", "setting": "SF-295; SF-295, 10 μM", "value": 36, "unit": "%"}, {"measurement": "Growth Percent", "setting": "SF-295; SF-295, 1.00E-5 Molar", "value": 63.92, "unit": "%"}, {"measurement": "GI%", "setting": "HCT-116; HCT-116, 10 μM", "value": "– (Only GI% higher than 20% are shown)"}, {"measurement": "Growth Percent", "setting": "HCT-116; HCT-116, 1.00E-5 Molar", "value": 81.80, "unit": "%"}, {"measurement": "GI%", "setting": "NCI-H226; NCI-H226, 10 μM", "value": 52, "unit": "%"}, {"measurement": "Growth Percent", "setting": "NCI-H226; NCI-H226, 1.00E-5 Molar", "value": 47.62, "unit": "%"}, {"measurement": "GI%", "setting": "IGROV1; IGROV1, 10 μM", "value": "– (Only GI% higher than 20% are shown)"}, {"measurement": "Growth Percent", "setting": "IGROV1; IGROV1, 1.00E-5 Molar", "value": 110.06, "unit": "%"}, {"measurement": "GI%", "setting": "TK-10; TK-10, 10 μM", "value": "– (Only GI% higher than 20% are shown)"}, {"measurement": "Growth Percent", "setting": "TK-10; TK-10, 1.00E-5 Molar", "value": 91.50, "unit": "%"}, {"measurement": "GI%", "setting": "CAKI-1; CAKI-1, 10 μM", "value": "– (Only GI% higher than 20% are shown)"}, {"measurement": "Growth Percent", "setting": "CAKI-1; CAKI-1, 1.00E-5 Molar", "value": 94.53, "unit": "%"}, {"measurement": "GI%", "setting": "NCI-H460; NCI-H460, 10 μM", "value": 22, "unit": "%"}, {"measurement": "Growth Percent", "setting": "NCI-H460; NCI-H460, 1.00E-5 Molar", "value": 78.01, "unit": "%"}, {"measurement": "GI%", "setting": "SNB-75; SNB-75, 10 μM", "value": "– (Only GI% higher than 20% are shown)"}, {"measurement": "Growth Percent", "setting": "SNB-75; SNB-75, 1.00E-5 Molar", "value": 100.40, "unit": "%"}, {"measurement": "Growth Percent", "setting": "NCI-H23", "value": 99.04, "unit": "%"}, {"measurement": "GI%", "setting": "MDA-MB-468; MDA-MB-468, 10 μM", "value": "– (Only GI% higher than 20% are shown)"}, {"measurement": "Growth Percent", "setting": "MDA-MB-468; MDA-MB-468, 1.00E-5 Molar", "value": 113.23, "unit": "%"}, {"measurement": "Mean GI %", "setting": "[1]; 10 μM", "value": 16, "unit": "%"}, {"measurement": "Mean Growth Percent", "setting": "[1]; 1.00E-5 Molar", "value": 84.51, "unit": "%"}, {"measurement": "GI%", "setting": "SW-620; SW-620, 10 μM", "value": "– (Only GI% higher than 20% are shown)"}, {"measurement": "Growth Percent", "setting": "SW-620; SW-620, 1.00E-5 Molar", "value": 84.27, "unit": "%"}, {"measurement": "GI%", "setting": "NCI-H522; NCI-H522, 10 μM", "value": "– (Only GI% higher than 20% are shown)"}, {"measurement": "Growth Percent", "setting": "NCI-H522; NCI-H522, 1.00E-5 Molar", "value": 87.55, "unit": "%"}]}]}
